From US6417187B2, “1,2,4-triazole based compounds that can be used as insecticides or acaricides and processes” (Dow AgroSciences LLC, priority 2000, dated 2002)

Experiments:
Assay type in all cases: in vivo
[1] = tested on: Sweetpotato Whitefly (Bemisia tabacia); experiment: Insecticidal test for Sweetpotato Whitefly (cotton plant spray); conditions: 200 ppm spray on cotton plants, 13 days, reduction of large nymphs; for pest or weed control at 200 ppm: Bemisia, 312 h, read-out: WF: activity at 200 ppm against whitefly (% Control rating)
[2] = tested on: Brown Planthopper (Nilaparvata lugens); experiment: Insecticidal test for Brown Planthopper (rice seedling roots in test solution)
[3] = tested on: cotton aphid (Aphis gossvpii); experiment: Insecticidal test for cotton aphid (squash cotyledon spray); conditions: for pest or weed control at 50 ppm: 72 h, read-out: CA: activity at 50 ppm against cotton aphid (% Control rating)
[4] = tested on: Green Leafhopper (Nephotettix cincticeps); experiment: Insecticidal test for Green Leafhopper (rice seedling roots in test solution)
[5] = tested on: beet armyworm (Spodoptera exigua); experiment: Insecticidal test for beet armyworm (treated lepidopteran diet); conditions: 400 ppm, treated diet, second-instar larvae, 5 days
[6] = 10 ppm test solution, rice seedling roots, 3rd instar nymphs, mortality at 6 days
[7] = 50 ppm spray on infested squash cotyledons, 3 days, population reduction versus untreated

| Compound | WF: activity at 200 ppm against whitefly (% Control rating) [1] | BPH: activity at 10 ppm against brown planthopper (% Control rating) [2, 6] | CA: activity at 50 ppm against cotton aphid (% Control rating) [3, 7] | GLH: activity at 10 ppm against green leafbopper (% Control rating) [4, 6] | other results |
| --- | --- | --- | --- | --- | --- |
| Cn1nc(-c2c(F)cccc2Cl)nc1-c1sc(C#Cc2ccccn2)c(Cl)c1Cl [Compound 33] | D (60-69) | F (less than 50) | F (less than 50) | F (less than 50) |  |
| Cn1nc(-c2c(F)cccc2Cl)nc1-c1ccc(C#Cc2ccccc2)cc1 [Compound 70] | F (less than 50) |  | C (70-79) |  |  |
| CC=CC#Cc1sc(-c2nc(-c3c(F)cccc3Cl)nn2C)c(Cl)c1Cl [Compound 39] |  |  |  |  | BPH: activity at 10 ppm against brown planthopper (% Control rating) ([2]; in vivo): F (key: A: 90-100; B: 80-89; C: 70-79; D: 60-69; E: 50-59; F: less than 50; G: inactive); CA: activity at 50 ppm against cotton aphid (% Control rating) ([3]; in vivo): B (key: A: 90-100; B: 80-89; C: 70-79; D: 60-69; E: 50-59; F: less than 50; G: inactive); GLH: activity at 10 ppm against green leafbopper (% Control rating) ([4]; in vivo): F (key: A: 90-100; B: 80-89; C: 70-79; D: 60-69; E: 50-59; F: less than 50; G: inactive) |
| CCCc1ccc(C#Cc2sc(-c3nc(C)nn3C)c(Cl)c2Cl)cc1 [Compound 75] | F (less than 50) | C (70-79) | F (less than 50) | F (less than 50) |  |
| C=C(C)C#Cc1sc(-c2nc(-c3c(F)cccc3Cl)nn2C)c(Cl)c1Cl [Compound 38] | F (less than 50) |  | D (60-69) |  |  |
| CCCc1ccc(C#Cc2sc(-c3nc(-c4c(F)cccc4Cl)n[nH]3)c(Cl)c2Cl)cc1 [Compound 80] | F (less than 50) |  |  |  |  |
| CCOc1ccc(C#Cc2ccc(-c3nc(-c4c(F)cccc4Cl)nn3C)s2)cc1 [Compound 66] | F (less than 50) |  | B (80-89) | F (less than 50) |  |
| Cc1cccc(C#Cc2sc(-c3nc(-c4c(F)cccc4Cl)nn3C)c(Cl)c2Cl)n1 [Compound 44] | F (less than 50) |  | F (less than 50) |  |  |
| Cn1nc(-c2c(F)cccc2Cl)nc1-c1sc(C#Cc2ccc(C(F)(F)F)cn2)c(Cl)c1Cl [Compound 62] | F (less than 50) | F (less than 50) | F (less than 50) | F (less than 50) |  |
| Cc1ccc(C#Cc2sc(-c3nc(-c4c(F)cccc4Cl)nn3C)c(Cl)c2Cl)nc1 [Compound 58] | F (less than 50) | F (less than 50) | F (less than 50) | F (less than 50) |  |
| CCCc1ccc(C#Cc2ccc(-c3nc(-c4c(F)cccc4Cl)nn3C)cc2)cc1 [Compound 71] | F (less than 50) | F (less than 50) | A (90-100) |  |  |
| CCCc1ccc(C#Cc2sc(-c3nc(-c4ccccc4F)nn3C)c(Cl)c2Cl)cc1 [Compound 76] | F (less than 50) | F (less than 50) |  | F (less than 50) | BAW: activity at 400 ppm against beet armyworm (% Control rating) [5]: A (90-100) |
| Cc1nc(-c2sc(C#Cc3ccc(F)cc3)c(Cl)c2Cl)n(C)n1 [Compound 78] |  | F (less than 50) |  | F (less than 50) | pest or weed control at 400 ppm ([5]; Spodoptera exigua, 120 h, read-out: BAW: activity at 400 ppm against beet armyworm (% Control rating)): 90 to 100%; pest or weed control at 200 ppm [1]: 60 to 69%; pest or weed control at 50 ppm [3, 7]: < 50% |
| Cn1nc(-c2c(F)cccc2Cl)nc1-c1sc(C#Cc2ccc(Cl)cn2)c(Cl)c1Cl [Compound 61] | F (less than 50) | F (less than 50) | F (less than 50) | F (less than 50) |  |
| Cn1nc(-c2c(F)cccc2Cl)nc1-c1sc(C#Cc2ccc(Br)cc2OC(F)(F)F)c(Cl)c1Cl [Compound 59] | F (less than 50) | F (less than 50) | F (less than 50) | F (less than 50) |  |
| COc1ccc(C#Cc2cccc(-c3nc(-c4c(Cl)cncc4Cl)nn3C)c2)cc1 [Compound 89] | F (less than 50) |  | B (80-89) | F (less than 50) |  |
| COc1ccc(C#Cc2ccc(-c3nc(-c4c(Cl)cncc4Cl)nn3C)cc2)cc1 [Compound 88] | F (less than 50) |  | D (60-69) | F (less than 50) |  |
| C#Cc1ccc(-c2nc(-c3c(F)cccc3Cl)nn2C)c(Cl)c1Cl [Compound 97] |  |  |  |  | pest or weed control at 200 ppm [1]: < 50%; pest or weed control at 50 ppm [3, 7]: 80 to 89% |
| Cn1nc(-c2c(F)cccc2Cl)nc1-c1ccc(C#Cc2ccccc2)s1 [Compound 68] | F (less than 50) | F (less than 50) | A (90-100) | F (less than 50) |  |
| Cc1cccnc1C#Cc1sc(-c2nc(-c3c(F)cccc3Cl)nn2C)c(Cl)c1Cl [Compound 45] | F (less than 50) | F (less than 50) | F (less than 50) | F (less than 50) |  |
| CCC#Cc1sc(-c2nc(-c3c(F)cccc3Cl)nn2C)c(Cl)c1Cl [Compound 5] |  | F (less than 50) |  | F (less than 50) | pest or weed control at 200 ppm [1]: < 50%; pest or weed control at 50 ppm [3, 7]: 80 to 89% |
| Cc1ccncc1C#Cc1sc(-c2nc(-c3c(F)cccc3Cl)nn2C)c(Cl)c1Cl [Compound 21] |  | F (less than 50) | F (less than 50) |  |  |
| Cn1nc(-c2ccccc2F)nc1-c1sc(C#Cc2ccc(F)cc2)c(Cl)c1Cl [Compound 79] | D (60-69) | F (less than 50) | F (less than 50) | F (less than 50) |  |
| Cc1ccnc(C#Cc2sc(-c3nc(-c4c(F)cccc4Cl)nn3C)c(Cl)c2Cl)c1 [Compound 43] | F (less than 50) |  | F (less than 50) | F (less than 50) |  |
| Cn1nc(-c2c(F)cccc2Cl)nc1-c1ccc(C#Cc2ccccc2F)s1 [Compound 69] | F (less than 50) |  | E (50-59) | F (less than 50) |  |
| Cc1cc(C#Cc2sc(-c3nc(-c4c(F)cccc4Cl)nn3C)c(Cl)c2Cl)ccn1 [Compound 57] | F (less than 50) |  |  | F (less than 50) |  |
| Cn1nc(-c2c(F)cccc2Cl)nc1-c1sc(C#Cc2cc(Cl)c(OCC(F)(F)F)c(Cl)c2)c(Cl)c1Cl [Compound 22] | D (60-69) | F (less than 50) | F (less than 50) | F (less than 50) |  |
